Laboratory results reported in US10266603B2, “Targeted therapy to restore radioactive iodine transport in thyroid cancer” (The Governors of the University of Alberta, priority 2014, dated 2019).

Experiments:
Format in all cases: cell-based, human
[1] = test system: patient derived papillary thyroid carcinoma primary tumors; assay: iodide transport in patient derived primary tumors; details: patient derived PTC primary tumors; 72 hour period
From the text: FIG. 9. In the effect of PDGFRA blockade using small molecule inhibitors on iodide transport in patient derived papillary thyroid carcinoma primary tumors.

BCPAP cell line = assay: wound-healing assay (cellular migration), BCPAP; details: BCPAP cell line expressing alpha subunit of PDGFR; after 24 and 42 hours; versus no crenolanib
Protocol: (§1) FIG. 8. The effect of PDGFRA blockade using a specific PDGFRA small molecule inhibitor on cellular migration using the wound-healing assay. In two separate cell lines that express the alpha subunit of PDGFR as shown in (A) 8305C cell line and BCPAP cell line in (B), the addition of crenolanib as a selective alpha inhibitor means that the percentage of open wound left after 24 and 42 hours is much higher because of slow the migration of the cells across the gap and this is highly significant. This illustrates the role of PDGFRA in mediating a more aggressive, dedifferentiated behavior for these tumors.

8305C cell line = assay: wound-healing assay (cellular migration), 8305C; details: 8305C cell line expressing alpha subunit of PDGFR; after 24 and 42 hours; versus no crenolanib
Protocol: as §1

## CC1(COc2ccc3c(c2)ncn3-c2ccc3cccc(N4CCC(N)CC4)c3n2)COC1 [crenolanib]
[1]
  iodide uptake: significant increase in iodide uptake
BCPAP cell line
  percentage of open wound left: much higher
8305C cell line
  percentage of open wound left: much higher
